Data as given in ChEMBL document CHEMBL1129724, “Inhibitory potency of lithocholic acid analogs and other bile acids on glucuronosyltransferase activity in a colon cancer cell line” (Bioorg Med Chem Lett, 1996).

What follows are compounds tested on HT-29 (assay: Inhibition of glucuronosyltransferase activity in the human colon cancer cell line HT-29 at 5 uM concentration).
Format: cell-based
Design: scale not given: the % may be the effect or the level left

Row | Structure (SMILES) | Activity
1 | CC(CCC(=O)O)[C@H]1CC[C@H]2[C@@H]3C(=O)C[C@@H]4C[C@H](O)CC[C@]4(C)[C@H]3CC[C@]12C (some centres not stated) | 51.1%
2 | CC(CCCOP(=O)(O)O)[C@H]1CC[C@H]2[C@@H]3CC[C@@H]4C[C@H](O)CC[C@]4(C)[C@H]3CC[C@]12C (some centres not stated) | 74%
3 | CC(CC(O)C(=O)O)[C@H]1CC[C@H]2[C@@H]3CC[C@@H]4C[C@H](O)CC[C@]4(C)[C@H]3CC[C@]12C (single isomer, unassigned) | 55.4%
4 | CC(CCC(=O)O)[C@H]1CC[C@H]2[C@@H]3[C@@H](O)[C@H](O)[C@@H]4C[C@H](O)CC[C@]4(C)[C@H]3CC[C@]12C (some centres not stated) | 78.5%
5 | CC(CCCCC(=O)O)[C@H]1CC[C@H]2[C@@H]3CC[C@@H]4C[C@H](O)CC[C@]4(C)[C@H]3CC[C@]12C (some centres not stated) | 41.9%
6 | CC(CCC(=O)O)[C@H]1CC[C@H]2[C@@H]3[C@H](O)C[C@@H]4C[C@H](O)CC[C@]4(C)[C@H]3C[C@@H](O)[C@]12C (some centres not stated) | 98.3%
7 | CC(CCC(=O)O)[C@H]1CC[C@H]2[C@@H]3CC[C@@H]4C[C@@H](O)CC[C@]4(C)[C@H]3CC[C@]12C (some centres not stated) | 86.9%
8 | C[C@H](CCC(=O)O)[C@H]1CC[C@H]2[C@@H]3CC[C@@H]4CCCC[C@]4(C)[C@H]3CC[C@]12C | 92%
9 | CC(CCC(=O)O)[C@H]1CC[C@H]2[C@@H]3CC[C@@H]4CC(=O)CC[C@]4(C)[C@H]3CC[C@]12C (some centres not stated) | 46%
10 | CC(CCC(=O)O)C1CCC2C3C=CC4C[C@H](O)CCC4(C)C3CCC12C (some centres not stated) | 41.4%
11 | CC(CCC(=O)O)C1CCC2C3C=CC4C[C@@H](O)CCC4(C)C3CCC12C (some centres not stated) | 39.1%
12 | CC(CCC(=O)O)[C@H]1CC[C@H]2[C@@H]3CC(=O)[C@@H]4C[C@H](O)CC[C@]4(C)[C@H]3CC[C@]12C (some centres not stated) | 28.1%
13 | C[C@H](CCC(=O)O)[C@H]1CC[C@H]2[C@@H]3[C@@H](O)C[C@@H]4C[C@H](O)CC[C@]4(C)[C@H]3CC[C@]12C | 73.3%
14 | C[C@H](CCC(=O)O)[C@H]1CC[C@H]2[C@@H]3CC(O)[C@@H]4C[C@H](O)CC[C@]4(C)[C@H]3CC[C@]12C (single isomer, unassigned) | 75.2%
15 | CC(CCC(=O)O)[C@H]1CC[C@H]2[C@@H]3CC[C@@H]4C[C@@H](O)CC[C@]4(C)[C@H]3C[C@@H](O)[C@]12C (some centres not stated) | 46.4%
16 | CC(CC(O)C(=O)O)[C@H]1CC[C@H]2[C@@H]3CC[C@@H]4C[C@H](O)CC[C@]4(C)[C@H]3CC[C@]12C (mixture of isomers) | 40%
17 | CC(CCC(=O)O)[C@H]1CC[C@H]2[C@@H]3CC[C@@H]4C[C@H](O)CC[C@]4(C)[C@H]3CC(=O)[C@]12C (some centres not stated) | 36.1%
18 | C[C@H](CCC(=O)O)[C@H]1CC[C@H]2[C@@H]3CCC4CC(O)CC[C@]4(C)[C@H]3CC[C@]12C (single isomer, unassigned) | 46.8%
19 | CC(CCC(=O)O)[C@H]1CC[C@H]2[C@@H]3[C@H](O)[C@H](O)[C@@H]4C[C@H](O)CC[C@]4(C)[C@H]3CC[C@]12C (some centres not stated) | 73.9%
20 | CC(CC(O)C(=O)O)[C@H]1CC[C@H]2[C@@H]3CC[C@@H]4C[C@H](O)CC[C@]4(C)[C@H]3CC[C@]12C (stereo in doubt) | 34.9%
21 | C[C@H](CCC(=O)O)[C@H]1CC[C@H]2[C@@H]3CC[C@@H]4C[C@H](O)CC[C@]4(C)[C@H]3CC[C@]12C | 25.3%
22 | C[C@H](CCC(=O)O)[C@H]1CC[C@H]2[C@@H]3[C@H](O)C[C@@H]4C[C@H](O)CC[C@]4(C)[C@H]3CC[C@]12C | 38.4%
23 | CC(CCCO)[C@H]1CC[C@H]2[C@@H]3CC[C@@H]4C[C@H](O)CC[C@]4(C)[C@H]3CC[C@]12C (some centres not stated) | 72.8%
24 | CC(CCC(=O)O)[C@H]1CC[C@H]2[C@@H]3C(=O)C[C@@H]4C[C@H](O)CC[C@]4(C)[C@H]3CC(=O)[C@]12C (some centres not stated) | 100%
25 | C[C@@H](CCC(=O)O)[C@H]1CC[C@H]2[C@@H]3[C@H](O)[C@@H](O)[C@@H]4C[C@H](O)CC[C@]4(C)[C@H]3CC[C@]12C | 100%
26 | C[C@H](CCC(=O)O)[C@H]1CC[C@H]2[C@@H]3CC[C@@H]4C[C@H](O)CCC4(C)[C@H]3CC(O)[C@]12C (single isomer, unassigned) | 48%
27 | CC(CCC(C(=O)O)C(=O)O)[C@H]1CC[C@H]2[C@@H]3CC[C@@H]4C[C@H](O)CC[C@]4(C)[C@H]3CC[C@]12C (some centres not stated) | 74.3%
